# Target: T1, recombinant caspase-6 (Homo sapiens, UniProt P55212)
# T1 construct: purchased BioMol
# T1 sequence (P55212 24-293): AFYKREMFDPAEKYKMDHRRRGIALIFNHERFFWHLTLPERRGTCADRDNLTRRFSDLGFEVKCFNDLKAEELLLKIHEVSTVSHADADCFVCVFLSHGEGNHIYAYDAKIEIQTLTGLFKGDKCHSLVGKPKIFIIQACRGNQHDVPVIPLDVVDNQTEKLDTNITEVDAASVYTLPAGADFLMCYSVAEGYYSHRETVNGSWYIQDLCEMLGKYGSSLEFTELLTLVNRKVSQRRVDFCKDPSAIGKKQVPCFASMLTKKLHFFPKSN
# Test: Simultaneous caspase-6 cleavage and 586 fragment detection by FRET
# Type: biochemical
# Conditions: cell-free; Htt substrate from COS-7 cell lysates
# Method: Different concentrations of the PG3 compounds were incubated with the Htt protein and the caspase-6 enzyme. The Htt substrate from COS-7 cell lysates is cleaved by caspase 6 and fragments are detected by FRET between the N-terminal BKP1 antibody and the neo-epitope antibody against amino acid 586.
# COS-7 cells were grown in DMEM supplemented with 10% fetal bovine serum, 1%/penicillin/streptomycin and 0.5% glutamine. Transfections were performed using the Fugene reagent (Roche) according to manufacturer's instructions. The transfected DNA encodes amino acids 1-1212 of the human Htt protein with 15 glutamines and a C-terminal HA-tag, under control of a CMV promoter (Warby, 2008, supra; Wellington et al., 2000. J Biol Chem 275:19831-19838). The construct that was transfected is 4c Htt, which contains D→A mutations at amino acids 513, 530, 552 and […] (SEQ ID NO: 1). 24 h after transfection, cells were harvested by trypsinization, pellets washed in PBS and lysed by suspension in lysis buffer (50 mM Tris pH 8, 150 mM NaCl, 1% Igepal, supplemented with 1× complete protease inhibitor (Roche) and 4 mM Pefabloc). Lysates were incubated on ice for 10 min, vortexed and sonicated for 4 sec before centrifugation at 21,000×g for 10 min at 4° C. Supernatants were saved, protein concentration determined with the Biorad DC assay and stored at −80° C. until use.
# Dilution series of cell lysates and caspase-6 (2.2× final concentration) were prepared in FRET cleavage buffer (10 mM HEPES pH 7.4, 100 mM NaCl, 0.05% gelatin, 0.1% CHAPS, 2 mM DTT) since this buffer was previously found to best stabilize caspase-6 in dilute form at room temperature. For negative controls, 22 μM zVAD-fmk was added to the caspase-6 dilutions.
# Tb-labelled BKP1 antibody and D2-labelled 586 antibody (Cisbio) were diluted to 1 ng/μl (Tb) and 10 ng/μl (D2) in FRET cleavage buffer and pre-mixed at a 1:1 ratio.
# In each well of a white 384 well plate (Nunc), 10 μl cell lysate were mixed with 10 μl caspase and 2 μl antibody mix, the plate was centrifuged briefly and incubated in the Victor 3 multilabel plate reader (Perkin Elmer) at 37° C. FRET was measured every 30 min for up to 2 h with the following settings: Excitation: 340 nm, Emission 1: 615 nm, Emission 2: 665 nm, 50 μs delay, 200 μs window time, 2000 μs cycle time. To obtain the final FRET signal, the ratio between Emission 2/Emission 1 (D2/Tb signal) was calculated. After 2 h at 37° C., the assay plate was sealed and after further incubation at 4° C. for 20 h, the FRET signal was read again.
smiles,measurement,value
"O=c1oc(C#Cc2ccccc2)nc(O)c1Cc1ccccc1 [PG-3d, 5-Benzyl-4-hydroxy-2-(phenylethynyl)-6H-1,3-oxazin-6-one]",IC50,5.6 µM
